The values below come from patent US11530216B2, “Deuterated colony stimulating factor-1 receptor (CSF-1R) inhibitors” (Genzyme Corporation, priority 2020, dated 2022).

Data set [1] in a line: Human liver S-9 intrinsic clearance. Conditions: human; for CLint scaled at 1 μM: s9. In kind it is in vitro ADME. On the procedure: Incubations were performed in 1 mg/mL human liver cytosol with high aldehyde oxidase (AO)/xanthine oxidase (XO) activity or 2.5 mg/mL human liver S-9 fraction with high AO/XO activity at 1 μM concentration of test compound in duplicate, and the concentration-time course of test compound depletion was determined after withdrawing samples from the incubation at assay time points followed by liquid chromatography with tandem mass spectrometry analysis. An organic solvent was used to terminate incubations.
(§1) These available known AO substrates along with the test compounds were analyzed using three in vitro systems (pooled human liver cytosol, liver S-9 fractions and human hepatocytes isolated from livers perfused with HTK media). Scaled unbound intrinsic clearances were calculated for the test compounds/new chemical entities and were compared to the in vivo unbound intrinsic clearances of the known AO substrates.

Data set [2] can be described thus: Human hepatocyte intrinsic clearance. Conditions: human, hepatocytes. In kind it is in vitro ADME. On the procedure: Incubations were performed in 0.5 million hepatocytes cells/mL at 1 μM concentration of test compound in duplicate with rat, human, dog, monkey, or mouse hepatocytes, and the concentration-time course of test compound depletion was determined after withdrawing samples from the incubation at assay time points followed by liquid chromatography with tandem mass spectrometry analysis. An organic solvent was used to terminate incubations.
as §1

For the next data set, the system named is C57BL/6 EAE model. The experiment in a line: MOG-induced EAE model. To be noted: 15 mg/kg p.o. BID for 7 days; for mean disease scores: female C57BL/6J mice. In kind it is in vivo, mouse. How it is done:
Experimental autoimmune encephalomyelitis (EAE) is primarily used as a non-clinical model of autoimmune inflammatory diseases of the CNS, and resembles many aspects of human multiple sclerosis. The myelin oligodendrocyte glycoprotein (MOG)-induced EAE model is ideal for exploring this immune-mediated mechanism of neuroinflammation and demyelination.
Test articles: • MOG35-55 peptide (New England Peptides, lot #BU01787)—250 μg/mouse in 4 mg/mL complete Freund's adjuvant (CFA; Chondrex Inc, Cat #7009, lot #190446) Bordetella pertussis toxin (PTX, Sigma, cat #P7208-5OUG, lot #MKCL 1350)—280 ng/mouse in 200 μL PBS • CSF-1R inhibitors—15 mg/kg • Vehicle—0.5% methylcellulose/0.2% Tween-80 Delivery: • MOG peptide & CFA: subcutaneous injection to 2 sites in the hind flank (100 μL/site). • Bordetella pertussis toxin: i.v. injection of 280 ng/mouse in 200 μL PBS on Day 0 and 2. • CSF1R inhibitor: oral gavage every 12 hours • Vehicle: oral gavage every 12 hours Time points: • Day 0—Administer MOG peptide in CFA and PTX to Groups 1-3 • Day 2—Administer PTX by i.v. to Groups 1-3 • Day 9—Begin daily scoring of mice • Day 11-14—Randomize mice to groups when reach score of 1 and begin treatment • Day ˜18-21—After 7 days of treatment, perfuse mice and euthanize animals.
Mice were clinically assessed daily for signs of paralytic disease and weighed intermittently to document weight loss. At study termination, ½ brain was fixed for histology and brain/liver/plasma were collected for exposure. Spinal cord and whole blood was collected for flow cytometry. Additional plasma aliquots were saved for follow up analysis.
Female C57BL/6J mice were immunized with an emulsion of MOG35-55 peptide (250 μg/mouse) in complete Freund's adjuvant (CFA). […] Following EAE induction, the mice were monitored daily for paralytic symptoms and scored for their clinical presentation using a progressive scoring system (Score 0: no disease; Score 1: flaccid tail; Score 2: hindlimb weakness; Score 3: hindlimb paralysis; Score 4: Front limb weakness or partial paralysis; Score 5: death). […]

Data set [3] can be described thus: Caco-2 permeability assay. The class given is in vitro ADME. Conditions: human; for Papp at 90 min, 20 μM: apical pH 6.5, 90 min. On the procedure:
Caco-2 permeability and efflux assays were performed in cell-based permeability model using Caco-2/TC7 cells. For permeability assays, Caco-2/TC7 cells were seeded on to Millipore Millicell 96 and for efflux assays, 24-well plates were used. The plates with cells were ready to use between 21-25 days of culturing. Both permeability and efflux assays were performed using the TECAN automated liquid handling platform. For permeability assays, test compounds were prepared at 20 μM test concentrations in permeability assay buffer (10 mM HEPES in HBSS buffer, pH 6.5) containing 0.5% BSA. Basolateral permeability buffer (pH 7.4) contains 5% BSA. For efflux assays, test compounds were prepared at 1 μM test concentrations in permeability assay buffer (10 mM HEPES in HBSS buffer, pH 7.4) containing 0.5% BSA. For efflux assays, the basolateral permeability buffer (pH 7.4) contained 0.5% BSA. The permeability assay was initiated by adding 20 μM test solution to apical side of plate containing Caco-2/TC7 cells. In the efflux assay, 1 μM test compound was added to an apical compartment for apical to basolateral (A to B) permeability determination. For basolateral to apical (B to A) permeability determination, the test compound was added to the basolateral side. The plate was incubated for 90 min under constant shaking at 37° C. At the end of the incubation period, samples taken were analyzed using high pressure liquid chromatography with tandem mass spectrometry. For each assay, apparent permeability (Papp) and recovery was calculated from mass spectrometry data. For permeability assay, Papp values are reported as numbers×10^−07 cm/s. For efflux assays, the efflux ratio is calculated using Papp (basolateral to apical) to Papp (apical to basolateral), in addition to recovery values.
A general note: Caco-2 cells form a polarised layer with tight junctions and transporters.

[4] abbreviates: s9, Human Liver S-9 Intrinsic Clearance _1.
[5] abbreviates: s9, Human Liver S-9 Intrinsic Clearance _2.

In the case of `[2H]c1nc2cccnc2n1Cc1cc(OC)c2c(c1)O[C@@H](C)[C@H](c1ccc(OC)nc1)O2` [Compound 6, 3-(((2S,3S)-8-methoxy-2-(6-methoxypyridin-3-yl)-3-methyl-2,3-dihydrobenzo[b][1,4]dioxin-6-yl)methyl)-3H-imidazo[4,5-b]pyridine-2-d], the CLint scaled at 1 μM in data set [1] worked out at 3.6 mL/min/kg. Also, the intrinsic clearance (microsomal CLint) at 1 μM in data set [1] (setting [4]) is less than 1.1 µL/min/mg. This compound showed a microsomal CLint at 1 μM in data set [1] (setting [5]) of less than 1.1 µL/min/mg. For the same compound, in data set [2], the CLint scaled at 1 μM worked out at 20 mL/min/kg and the hepatocyte CLint at 1 μM was 7.88 µL/min/1e6 cells. In addition, in the data set on C57BL/6 EAE model (compared with Compound 24), the paralytic symptoms entry is given as “ameliorated paralytic symptoms to a surprisingly greater extent than nondeuterated Compound 24”. In addition, in the data set with C57BL/6 EAE model, the mean disease scores result is recorded as “significantly mean disease scores”. Moreover, in data set [3], the recovery at 90 min, 20 μM came out at 73% and the Papp at 90 min, 20 μM was 37.7 ×10⁻⁶ cm/s.
Take `COc1ccc(C2Oc3c(OC)cc(Cn4cnc5cccnc54)cc3O[C@H]2C)cn1` (some centres unmarked) [Compound 24]: the CLint scaled at 1 μM came to 9 mL/min/kg in data set [1] and 32.3 mL/min/kg in data set [2]. Also, the results for the microsomal CLint at 1 μM in data set [1] (setting [4]) and in data set [1] (setting [5]) were 3.06 µL/min/mg and 2.76 µL/min/mg, respectively. Further, the hepatocyte CLint at 1 μM in data set [2] amounted to 12.7 µL/min/1e6 cells. For the same compound, the mean disease scores result in the data set with C57BL/6 EAE model is “significantly mean disease scores”. Further, in data set [3], the recovery at 90 min, 20 μM came to 80%. Further, the Papp at 90 min, 20 μM in data set [3] was determined as 37.7 ×10⁻⁶ cm/s.

A word on the CLint scaled: it is a measure of how fast metabolising enzymes remove a compound, apart from limits set by blood flow. Broadly, the microsomal CLint is the capacity of the preparation to metabolise the compound, expressed as a volume cleared per time. A higher microsomal CLint goes with rapid turnover. One may read the hepatocyte CLint as the rate of metabolic loss divided by the concentration. High values mean faster metabolism, low ones greater metabolic stability. By Papp is commonly meant a coefficient for how fast a substance crosses the barrier. A lower Papp goes with poor permeation.
